Assay results from US11523997B2, “Method of providing celiprolol therapy to a patient” (Assistance Publique-Hôpitaux de Paris (AP-HP), priority 2017, dated 2022).

Experiments:
[1] = test system: patients with molecularly confirmed vascular EDS; assay: Long-term cohort follow-up of vEDS patients treated with celiprolol: patient survival (Kaplan-Meier, Cox model); type: in vivo, human; parameters: Survival of patients at 1 year of follow-up / Survival of patients at 5 years of follow-up / Survival of patients at 10 years of follow-up / Overall patient survival (Kaplan-Meier) / Survival at end of follow-up in those treated with celiprolol / Survival according to type of variant: Group I / Survival according to type of variant: Group II / Survival according to type of variant: Group III: concentration or dose not given beside the values
Description: (§1) All patients with clinically and molecularly diagnosed vEDS that were actively followed clinically in the French National Referral Centre for Rare Vascular Diseases (HEGP, AP-HP, Paris, France) between January 2000 and March 2017 were screened for participation. During the initial evaluation of the first affected family member seeking medical attention for symptoms related to vEDS (index case), familial medical history was recorded and investigation performed in the first-degree relatives whenever possible. A dedicated database for vEDS was created at our institution in 2011. All relevant clinical data of every vEDS patient followed by our centre was entered into this database retrospectively from the year 2000 until 2011, and prospectively thereafter until Mar. 15, 2017. The database contains all available medical history related to the pathology before the initial work-up and obtained during the follow-up either through systematic visits or those caused by a new clinical event. Thus, the occurrence of any acute arterial, gastrointestinal, pulmonary and other vEDS-related events was systematically recorded. In case of death during follow-up, the time and cause of death were entered into the database. This study was formally approved by the IDF ethics committee (IRB registration #00001072) and the database was held in compliance with French legislation on patient privacy.
(§2) All vEDS patients benefited from standardized whole body arterial monitoring by Doppler Ultrasound (DUS) and CT angiogram and/or MRA. Such investigations were performed at baseline (initial assessment at molecular diagnosis) and was repeated every 12 to 15 months in asymptomatic patients. For arterial events that occurred before molecular diagnosis, location of arterial segments was retrieved from hospitalization and imaging reports or examinations, when available. In case of an acute arterial event, symptomatic arterial beds/segments were monitored by any necessary diagnostic and therapeutic means (CT-angiogram, DUS, angiography in case of embolization). […] For optimized management of arterial, gastrointestinal, and pulmonary emergencies, patients were given direct access to the medical team of our centre.
(§3) Since the publication of the BBest trial in 2011, all included patients followed by our centre and not already treated with celiprolol were offered to switch to celiprolol. Patients who were not part of the trial and who were diagnosed during or since the termination of the BBest trial were treated with celiprolol starting at molecular diagnosis. Initial dosing of celiprolol was 100 mg once daily and increased by 100 mg/day every month over a 3-month period to reach the dose of 400 mg/day (200 mg twice daily) (celiprolol hydrochloride). In case of signs of intolerance (fatigue, dizziness) during up-titration or follow-up, the dose of celiprolol was reduced by 100 mg/day until the highest tolerated dose was reached. Dose adjustments were made whenever necessary throughout the patient's follow-up if intolerance was suspected. In accordance with the treatment protocol of the BBEST trial, patients were up-titrated to a maximum dose of 200 mg twice daily.
Adherence to medication was verified by open interview of the patients at each follow-up visit. Low medication adherence was considered if patients admitted to not taking their medication regularly at any moment of their follow-up. Patients were considered intolerant to celiprolol in case of refusal to follow the prescription even at a minimum dose of 100 mg/day. Patients taking another beta-blocker were offered to switch to celiprolol but this change was not mandatory, especially if patients had been clinically silent until molecular diagnosis while under another betablocker. If an acute arterial event occurred, patients were once again offered to switch to celiprolol. […]

[2] = test system: patients with molecularly confirmed vascular EDS; assay: Cohort follow-up: incidence of acute arterial events and hospitalizations; type: in vivo, human
Description: as §1, §2
In order to assess arterial morbidity over a long timeline in patients with different follow-up periods, an empirical arterial score was designed for each subject. […]
Quantitative data were expressed as number, median, first and third quartiles; qualitative data were expressed as number and percentage. […] Quantitative variables were compared with the Wilcoxon-Mann-Whitney or the Kruskal Wallis tests, as appropriate. […]

[3] = test system: patients with molecularly confirmed vascular EDS; assay: Cohort follow-up: tolerance of celiprolol with 3-month up-titration; type: in vivo, human
Description: as §3
Adherence to medication was verified by open interview of the patients at each follow-up visit. Low medication adherence was considered if patients admitted to not taking their medication regularly at any moment of their follow-up. Patients were considered intolerant to celiprolol in case of refusal to follow the prescription even at a minimum dose of 100 mg/day. Patients taking another beta-blocker were offered to switch to celiprolol but this change was not mandatory, especially if patients had been clinically silent until molecular diagnosis while under another betablocker. If an acute arterial event occurred, patients were once again offered to switch to celiprolol. To reach significant numbers to allow comparative analysis, intolerant patients, patients not taking celiprolol, patients taking another betablocker and non-adherent patients were merged into one group further referred to as “not treated”.

[4] = test system: patients with a phenotype of vEDS or molecularly proven vEDS; conditions: final 200 mg twice a day (BID); 5-year follow-up; 18-month up-titration; cited from earlier work
[5] = Cox's model, stepwise method, n=132
[6] = multivariate Cox's model, n=132 (Groups I and II)
[7] = whole cohort, 90.3% on celiprolol by end of study

CCN(CC)C(=O)Nc1ccc(OCC(O)CNC(C)(C)C)c(C(C)=O)c1 (stereo not shown) [celiprolol, N′-(3-Acetyl-4-(3-((1,1-dimethylethyl)amino)-2-hydroxypropoxy)phenyl)-N, N-diethylurea]
Observed reduction in mortality: dose dependence ([1]; 400 mg/day better than a smaller dose): dose-dependent | Hazard ratio, celiprolol treatment Full dose/No [1, 5]: 0.060 | Hazard ratio, celiprolol treatment Half dose/No [1, 5]: 0.305 | Hazard ratio, treatment duration ≥6 years/<6 years [1, 5]: 0.058 | Survival according to type of variant: Group I ([1]; Group I (glycine missense), n=144 cohort): 65.1% | Survival according to type of variant: Group II ([1]; Group II (splice-site variants, insertions/deletions, duplications)): 89.6% | Survival according to type of variant: Group III ([1]; Group III (haploinsufficiency)): 100% | Survival at end of follow-up in those treated with celiprolol ([1]; Groups I and II (n=132), treated n=110): 80.7% | Survival at end of follow-up according to daily dose: celiprolol 400 mg/day ([1]; Groups I and II, 400 mg/day): 85% | Survival at end of follow-up according to daily dose: celiprolol 100-300 mg/day ([1]; Groups I and II, 100-300 mg/day): 62.8% | Hazard ratio, celiprolol treatment Full dose/No [1, 6]: 0.048 | Hazard ratio, celiprolol treatment Half dose/No [1, 6]: 0.303 | Hazard ratio, treatment duration ≥6 years/<6 years [1, 6]: 0.058 | Survival of patients at 1 year of follow-up ([1]; n=144, 1 year): 98.6% | Survival of patients at 5 years of follow-up ([1]; n=144, 5 years): 92% | Survival of patients at 10 years of follow-up ([1]; n=144, 10 years): 82.7% | Overall patient survival (Kaplan-Meier) ([1]; n=144 vascular EDS patients, end of follow-up): 71.6% | Deceased patients with celiprolol treatment (Yes), % ([1]; of N=17 deceased patients): (52.9%) | Alive patients with celiprolol treatment (Yes), % ([1]; of N=127 alive patients): (87.4%) | Survival of patients treated with celiprolol compared with others ([1]; overall conclusion): better survival than others | Odds ratio (OR), rate of hospitalizations for acute arterial event before and after 2011 ([2]; before vs after systematic introduction of celiprolol (2011)): 1.72 | Effect of celiprolol on mean age of occurrence of first and second new arterial event ([2]; in vivo): without identifiable effect | Cumulative incidence of a first new arterial event during follow-up [2, 7]: 56.8% | Cumulative incidence of a second new arterial event during follow-up [2, 7]: 29.8% | Celiprolol intolerance and side effects with about three-month up-titration ([3]; full dose, up-titration of about three months): without significant increase | Patients requiring dose reduction due to fatigue and/or dizziness ([3]; human, in vivo): 3.47% | Patients who declared themselves intolerant to celiprolol or refused to take it in fear of intolerance ([3]; n=2 of 144): 1.4% | reduction in morbidity and mortality [4]: 35%
